In patent US6465647B1, “Oxygen, sulfur and nitrogen substituted cyclohexene and cyclohexane derivatives having retinoid-like biological activity” (Allergan, Inc., priority 1999, dated 2002):

Each molecule was assayed on ornithine decarboxylase (ODC) (assay: Ornithine decarboxylase (ODC) assay: inhibition of TPA induction of ODC activity). Settings: concentration of the test compound which causes 60% inhibition in the ODC assay (TPA-induced ODC activity).
Type: biochemical
Text: A classic measure of retinoic acid activity involves measuring the effects of retinoic acid on ornithine decarboxylase. The original work on the correlation between retinoic acid and a decrease in cell proliferation was done by Verma & Boutwell, Cancer Research, 1977, 37, 2196-2201. That reference discloses that ornithine decarboxylase (ODC) activity increased precedent to polyamine biosynthesis. It has been established elsewhere that increases in polyamine synthesis can be correlated or associated with cellular proliferation. Thus, if ODC activity could be inhibited, cell hyperproliferation could be modulated. Although all cases for ODC activity increases are unknown, it is known that 12-0-tetradecanoylphorbol-13-acetate (TPA) induces ODC activity. Retinoic acid inhibits this induction of ODC activity by TPA. […] “IC60” is that concentration of the test compound which causes 60% inhibition in the ODC assay. By analogy, “IC80”, for example, is that concentration of the test compound which causes 80% inhibition in the ODC assay.
Table 1 discloses the activity of certain exemplary compounds of the invention in the above-described oinithine decarboxylase (ODC) assay.

IC60 [nM] | Compound
5.1 | CCOC(=O)c1ccc(C#C/C=C/C2=C(C)CCCC2OC(=O)C(C)(C)C)cc1 (single isomer, unassigned) [Compound 6a, Ethyl (−)-(E)-4-(4-(6-(2,2-Dimethylpropanoyl)oxy-2-methylcyclohex-1-enyl)but-3-ene-1-ynyl)benzoate]
20.9 | CCOC(=O)c1ccc(C#C/C=C/C2=C(C)CCCC2OC(=O)CC)cc1 (stereo not drawn) [Compound 4a, Ethyl (−)-(E)-4-(4-(6-Propionyloxy-2-methylcyclohex-1-enyl)but-3-en-1-ynyl)benzoate]
124 | CCOC(=O)c1ccc(C#C/C=C/C2=C(C)CCCC2OC(=O)C(C)(C)C)cc1 (single isomer, unassigned) [Compound 6b, Ethyl (+)-(E)-4-(4-(6-(2,2-Dimethylpropanoyl)oxy-2-methylcyclohex-1-enyl)but-3-ene-1-ynyl)benzoate]
2.4 | CCOC(=O)c1ccc(C#CC=CC2=C(C)CCCC2=NOC)cc1 [Compound 10]
4.3 | CCOC(=O)c1ccc(C#C/C=C/C2=C(C)CCCC2OC(C)=O)cc1 (single isomer, unassigned) [Compound 3b, Ethyl (+)-(E)-4-(4-(6-Acetyloxy-2-methylcyclohex-1-enyl)but3-en-1-ynyl)benzoate]
10.3 | CCOC(=O)c1ccc(C#CC=CC2=C(C)CCCC2=NOCc2ccccc2)cc1 [Compound 11]
0.52 | CCOC(=O)c1ccc(C#C/C=C/C2=C(C)CCCC2OC(C)=O)cc1 (single isomer, unassigned) [Compound 3a, Ethyl (−)-(E)-4-(4-(6-Acetyloxy-2-methylcyclohex-1-enyl)but-3-en-1-ynyl)benzoate]
234 | CCOC(=O)c1ccc(C#C/C=C/C2=C(C)CCCC2OC(=O)C(C)C)cc1 (stereo not drawn) [Compound 5b, Ethyl (+)-(E)-4-(4-(6-iso-Butyryloxy-2-methyicyclohex-1-enyl)but-3-ene-1-ynyl)benzoate]
8.6 | CCOC(=O)c1ccc(C#C/C=C/C2=C(C)CCCC2OC(=O)c2ccccc2)cc1 (stereo not drawn) [Compound 7a, Ethyl (−)-(E)-4-(4-(6-Benzoyloxy-2-methylcyclohex-1-enyl)but-3-ene-1-ynyl)benzoate]
7.8 | CCOC(=O)C=C1CCCC(C)=C1C=CC#Cc1ccc(C(=O)OCC)cc1 [Compound 12, Ethyl 4-(4-(6-Ethoxycarbonylmethylene-2-methylcyclohex-1-enyl)but-3-en-1-ynyl)benzoate]

Same assay, conditions: concentration of the test compound which causes 60% inhibition in the ODC assay (TPA-induced ODC activity); listed as Sa

IC60 [nM] | Compound
15.7 | CCOC(=O)c1ccc(C#C/C=C/C2=C(C)CCCC2OC(=O)C(C)C)cc1 (stereo not drawn) [Compound 5a, Ethyl (−)-(E)-4-(4-(6-iso-Butyryloxy-2-methylcyclohex-1-enyl)but-3-ene-1-ynyl)benzoate]
